Measured values taken from PubChem BioAssay AID2060499 (Molecular Pharmacology Branch, DTP, NCI, 2025).

System: 777334-354-R2-J4-PDC tumor spheroids with HUVEC/MSC, viability
Assay: Anticancer human tumor 777334-354-R2-J4-PDC patient-derived pancreatic adenocarcinoma cell line growth inhibition [GQUAD]
Details: for IC50: curve of first compound; for viability, T/C: stronger effect = lower value
Method in brief: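 Tumor cells were grown as complex spheroids with HUVEC endothelial cells and mesenchymal stem cells as stroma. G-quadruplex stabilizers were combined with targeted agents over half-log dilutions from near the clinical Cmax, or from 10 microM.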

[1] = second compound 0.0316 µM, first compound 0.0316 µM
[2] = second compound 0.0316 µM, first compound 0.316 µM
[3] = second compound 0.1 µM, first compound 0.0316 µM
[4] = second compound 0.1 µM, first compound 0.316 µM
[5] = second compound 0.316 µM, first compound 0.0316 µM
[6] = second compound 0.316 µM, first compound 0.316 µM
[7] = second compound 1 µM, first compound 0.0316 µM
[8] = second compound 1 µM, first compound 0.316 µM
[9] = second compound 3.16 µM, first compound 0.0316 µM
[10] = second compound 3.16 µM, first compound 0.316 µM
[11] = second compound 10 µM, first compound 0.0316 µM
[12] = second compound 10 µM, first compound 0.316 µM
[13] = second compound 0.0316 µM, first compound 0.1 µM
[14] = second compound 0.0316 µM, first compound 1 µM
[15] = second compound 0.0316 µM, first compound 3.16 µM
[16] = second compound 0.0316 µM, first compound 10 µM
[17] = second compound 0.1 µM, first compound 0.1 µM
[18] = second compound 0.1 µM, first compound 1 µM
[19] = second compound 0.1 µM, first compound 3.16 µM
[20] = second compound 0.1 µM, first compound 10 µM
[21] = second compound 0.316 µM, first compound 0.1 µM
[22] = second compound 0.316 µM, first compound 1 µM
[23] = second compound 0.316 µM, first compound 3.16 µM
[24] = second compound 0.316 µM, first compound 10 µM
[25] = second compound 1 µM, first compound 0.1 µM
[26] = second compound 1 µM, first compound 1 µM
[27] = second compound 1 µM, first compound 3.16 µM
[28] = second compound 1 µM, first compound 10 µM
[29] = second compound 3.16 µM, first compound 0.1 µM
[30] = second compound 3.16 µM, first compound 1 µM
[31] = second compound 3.16 µM, first compound 3.16 µM
[32] = second compound 3.16 µM, first compound 10 µM
[33] = second compound 10 µM, first compound 0.1 µM
[34] = second compound 10 µM, first compound 1 µM
[35] = second compound 10 µM, first compound 3.16 µM
[36] = second compound 10 µM, first compound 10 µM
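Note: spheroids exposed to compounds for 7 days before readout.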

`CC[C@@]1(O)C(=O)OCc2c1cc1n(c2=O)Cc2cc3c(CN(C)C)c(O)ccc3nc2-1` + CN(C)c1ccc(Nc2c3ccc(NC(=O)CCN4CCCC4)cc3nc3cc(NC(=O)CCN4CCCC4)ccc23)cc1 showed an IC50 (second compound 0.0316 µM) of 130 nM, an IC50 (second compound 0.1 µM) of 157 nM and an IC50 (second compound 0.316 µM) of 153 nM. The IC50 (second compound 1 µM) was 163 nM, the IC50 (second compound 3.16 µM) was 106 nM and the IC50 (second compound 10 µM) was 140 nM. For the same molecule, the viability, T/C (second compound 0.0316 µM, first compound 0.000999 µM) was 105%, the viability, T/C (second compound 0.0316 µM, first compound 0.00316 µM) was 110% and the viability, T/C (second compound 0.0316 µM, first compound 0.00999 µM) was 109%. The viability, T/C [1] was 84.5%, the viability, T/C (second compound 0.0316 µM, first compound 0.0999 µM) was 56% and the viability, T/C [2] was 34.7%. The viability, T/C (second compound 0.1 µM, first compound 0.000999 µM) was 106%, the viability, T/C (second compound 0.1 µM, first compound 0.00316 µM) was 89.2% and the viability, T/C (second compound 0.1 µM, first compound 0.00999 µM) was 103%. It also gave a viability, T/C [3] of 88.8%, a viability, T/C (second compound 0.1 µM, first compound 0.0999 µM) of 57.7% and a viability, T/C [4] of 38.5%. The viability, T/C (second compound 0.316 µM, first compound 0.000999 µM) was 77.1%, the viability, T/C (second compound 0.316 µM, first compound 0.00316 µM) was 90.2% and the viability, T/C (second compound 0.316 µM, first compound 0.00999 µM) was 95.1%. For the same molecule, the viability, T/C [5] was 79.1%, the viability, T/C (second compound 0.316 µM, first compound 0.0999 µM) was 60.4% and the viability, T/C [6] was 33.2%. For the same molecule, the viability, T/C (second compound 1 µM, first compound 0.000999 µM) was 98.8%, the viability, T/C (second compound 1 µM, first compound 0.00316 µM) was 95.9% and the viability, T/C (second compound 1 µM, first compound 0.00999 µM) was 100%. The viability, T/C [7] was 88.1%, the viability, T/C (second compound 1 µM, first compound 0.0999 µM) was 57.8% and the viability, T/C [8] was 39.6%. For the same molecule, the viability, T/C (second compound 3.16 µM, first compound 0.000999 µM) was 83.7%, the viability, T/C (second compound 3.16 µM, first compound 0.00316 µM) was 94.2% and the viability, T/C (second compound 3.16 µM, first compound 0.00999 µM) was 98.8%. The viability, T/C [9] was 83.6%, the viability, T/C (second compound 3.16 µM, first compound 0.0999 µM) was 51.4% and the viability, T/C [10] was 31.9%. For the same molecule, the viability, T/C (second compound 10 µM, first compound 0.000999 µM) was 79.3%, the viability, T/C (second compound 10 µM, first compound 0.00316 µM) was 89.9% and the viability, T/C (second compound 10 µM, first compound 0.00999 µM) was 67.4%. For the same molecule, the viability, T/C [11] was 73.4%, the viability, T/C (second compound 10 µM, first compound 0.0999 µM) was 55.3% and the viability, T/C [12] was 35.1%.

Work on `CC1COCCN1c1cc(-c2ccnn2C)c2ccnc(-c3ccn[nH]3)c2n1` (stereo unspecified) + Cc1[nH]c2ccc(F)cc2c1-c1nc2c3cccnc3c3ncccc3c2[nH]1 yielded an IC50 (second compound 0.0316 µM) of 894 nM, an IC50 (second compound 0.1 µM) of 834 nM and an IC50 (second compound 0.316 µM) of 483 nM. The IC50 (second compound 1 µM) was 479 nM, the IC50 (second compound 3.16 µM) was less than 31.6 nM and the IC50 (second compound 10 µM) was less than 31.6 nM. For the same molecule, the viability, T/C [1] was 91.3%, the viability, T/C [13] was 74.2% and the viability, T/C [2] was 62.4%. It also gave a viability, T/C [14] of 44.4%, a viability, T/C [15] of 44% and a viability, T/C [16] of 31.1%. It also gave a viability, T/C [3] of 93.7%, a viability, T/C [17] of 67.1% and a viability, T/C [4] of 63.5%. The viability, T/C [18] was 46.4%, the viability, T/C [19] was 41.5% and the viability, T/C [20] was 29.4%. It also gave a viability, T/C [5] of 90.9%, a viability, T/C [21] of 79.6% and a viability, T/C [6] of 48.7%. For the same molecule, the viability, T/C [22] was 46.6%, the viability, T/C [23] was 39.5% and the viability, T/C [24] was 29.7%. The viability, T/C [7] was 68.7%, the viability, T/C [25] was 65.2% and the viability, T/C [8] was 53.2%. It also gave a viability, T/C [26] of 39.9%, a viability, T/C [27] of 35.6% and a viability, T/C [28] of 19.1%. The viability, T/C [9] was 26.4%, the viability, T/C [29] was 23.9% and the viability, T/C [10] was 18.9%. For the same molecule, the viability, T/C [30] was 11.1%, the viability, T/C [31] was 8.41% and the viability, T/C [32] was 8.24%. It also gave a viability, T/C [11] of 33.5%, a viability, T/C [33] of 19.5% and a viability, T/C [12] of 14.9%. It also gave a viability, T/C [34] of 11.7%, a viability, T/C [35] of 12.7% and a viability, T/C [36] of 11.6%.

Molecule `C=CC(=O)N1CCN(c2nc(=O)n(-c3c(C)ccnc3C(C)C)c3nc(-c4c(O)cccc4F)c(F)cc23)C(C)C1` (stereo unspecified) + CN(C)c1ccc(Nc2c3ccc(NC(=O)CCN4CCCC4)cc3nc3cc(NC(=O)CCN4CCCC4)ccc23)cc1 has an IC50 (second compound 0.0316 µM) greater than 10000 nM, an IC50 (second compound 0.1 µM) greater than 10000 nM and an IC50 (second compound 0.316 µM) greater than 10000 nM. It also gave an IC50 (second compound 1 µM) greater than 10000 nM, an IC50 (second compound 3.16 µM) greater than 10000 nM and an IC50 (second compound 10 µM) greater than 10000 nM. For the same molecule, the viability, T/C [1] was 102%, the viability, T/C [13] was 97% and the viability, T/C [2] was 115%. The viability, T/C [14] was 100%, the viability, T/C [15] was 116% and the viability, T/C [16] was 118%. The viability, T/C [3] was 89.5%, the viability, T/C [17] was 95.1% and the viability, T/C [4] was 104%. The viability, T/C [18] was 128%, the viability, T/C [19] was 120% and the viability, T/C [20] was 107%. The viability, T/C [5] was 98.2%, the viability, T/C [21] was 109% and the viability, T/C [6] was 103%. It also gave a viability, T/C [22] of 113%, a viability, T/C [23] of 106% and a viability, T/C [24] of 109%. The viability, T/C [7] was 92.8%, the viability, T/C [25] was 86.7% and the viability, T/C [8] was 94.2%. For the same molecule, the viability, T/C [26] was 105%, the viability, T/C [27] was 115% and the viability, T/C [28] was 97.7%. It also gave a viability, T/C [9] of 84.6%, a viability, T/C [29] of 87.2% and a viability, T/C [10] of 90.5%. It also gave a viability, T/C [30] of 107%, a viability, T/C [31] of 112% and a viability, T/C [32] of 95%. It also gave a viability, T/C [11] of 76.7%, a viability, T/C [33] of 76.3% and a viability, T/C [12] of 84%. The viability, T/C [34] was 90.5%, the viability, T/C [35] was 99.5% and the viability, T/C [36] was 75.5%.
